Measured values as given in patent publication US9113629B2, “4-amino-6-(4-substituted-phenyl)-picolinates and 6-amino-2-(4-substituted-phenyl)-pyrimidine-4-carboxylates and their use as herbicides” (DOW AGROSCIENCES LLC, priority 2013, dated 2015).
Read-outs that look alike come from different tables or passages of the source.

Key:
[1] = system: Key Broadleaf Weed and Crop Species; test: Post-emergent Test II herbicidal activity (Table 5); assay type: in vivo; conditions: post-emergence, 336 h, 14 days after application; for pest or weed control at 70 g/ha: application rate 70 g ai/ha; for pest or weed control at 140 g/ha: application rate 140 g ai/ha
Procedure, shortened: (§1)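 Compounds, dissolved in 97:3 acetone/DMSO and diluted into an aqueous carrier containing crop oil concentrate and Triton X-155, are applied over the top of young plants at 187 L/ha. Injury is scored visually at 14 d, 0% meaning no effect and 100% complete kill.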

[2] = system: Key Grass and Sedge Weeds as well as Grass Crops; test: Post-emergent Test II herbicidal activity (Table 6); assay type: in vivo; conditions: post-emergence, 336 h; for pest or weed control at 70 g/ha: 70 g ai/ha; for pest or weed control at 140 g/ha: 140 g ai/ha
Procedure, shortened: as §1

[3] = ABUTH: velvetleaf (Abutilon theophrasti), read-out: Visual Growth Reduction (%) 14 Days After Application, ABUTH
[4] = AMARE: redroot pigweed (Amaranthus retroflexus), read-out: Visual Growth Reduction (%) 14 Days After Application, AMARE
[5] = BRSNN: oilseed-rape, canola (Brassica napus), read-out: Visual Growth Reduction (%) 14 Days After Application, BRSNN
[6] = CHEAL: lambsquarters (Chenopodium album), read-out: Visual Growth Reduction (%) 14 Days After Application, CHEAL
[7] = EPHHL: wild poinsettia (Euphorbia heterophylla), read-out: Visual Growth Reduction (%) 14 Days After Application, EPHHL
[8] = HELAN: sunflower (Helianthus annuus), read-out: Visual Growth Reduction (%) 14 Days After Application, HELAN
[9] = VIOTR: wild pansy (Viola tricolor), read-out: Visual Growth Reduction (%) 14 Days After Application, VIOTR
[10] = CYPES: yellow nutsedge (Cyperus esculentus), read-out: Visual Growth Reduction (%) 14 Days After Application, CYPES
[11] = DIGSA: crabgrass (Digitaria sanguinalis), read-out: Visual Growth Reduction (%) 14 Days After Application, DIGSA
[12] = ECHCG: barnyardgrass (Echinochloa crus-galli), read-out: Visual Growth Reduction (%) 14 Days After Application, ECHCG
[13] = ORYSA: rice (Oryza sativa), crop, read-out: Visual Growth Reduction (%) 14 Days After Application, ORYSA
[14] = SETFA: giant foxtail (Setaria faberi), read-out: Visual Growth Reduction (%) 14 Days After Application, SETFA
[15] = SORVU: grain sorghum (Sorghum vulgare), read-out: Visual Growth Reduction (%) 14 Days After Application, SORVU
[16] = TRZSS (wheat, Triticum aestivum), crop, read-out: Visual Growth Reduction (%) 14 Days After Application, TRZSS
[17] = ZEAMX: maize, corn (Zea mays), crop, read-out: Visual Growth Reduction (%) 14 Days After Application, ZEAMX

## COC(=O)c1nc(-c2ccccc2)nc(N)c1OC [Compound 175]
other
  melting point: 123 to 124 °C
[1]; [3]
  pest or weed control at 70 g/ha: 45 to 59%
  pest or weed control at 140 g/ha: 45 to 59%
[1]; [4]
  pest or weed control at 70 g/ha: 45 to 59%
  pest or weed control at 140 g/ha: 95 to 100%
[1]; [5]
  pest or weed control at 70 g/ha: 0 to 29%
  pest or weed control at 140 g/ha: 0 to 29%
[1]; [6]
  pest or weed control at 70 g/ha: 0 to 29%
  pest or weed control at 140 g/ha: 30 to 44%
[1]; [7]
  pest or weed control at 70 g/ha: 85 to 94%
  pest or weed control at 140 g/ha: 85 to 94%
[1]; [8]
  pest or weed control at 70 g/ha: 45 to 59%
  pest or weed control at 140 g/ha: 60 to 74%
[1]; [9]
  pest or weed control at 70 g/ha: 0 to 29%
  pest or weed control at 140 g/ha: 0 to 29%
[2]; [10]
  pest or weed control at 70 g/ha: 0 to 29%
  pest or weed control at 140 g/ha: 0 to 29%
[2]; [11]
  pest or weed control at 70 g/ha: 0 to 29%
  pest or weed control at 140 g/ha: 0 to 29%
[2]; [12]
  pest or weed control at 70 g/ha: 0 to 29%
  pest or weed control at 140 g/ha: 0 to 29%
[2]; [13]
  pest or weed control at 70 g/ha: 0 to 29%
  pest or weed control at 140 g/ha: 0 to 29%
[2]; [14]
  pest or weed control at 70 g/ha: 0 to 29%
  pest or weed control at 140 g/ha: 0 to 29%
[2]; [15]
  pest or weed control at 70 g/ha: 0 to 29%
  pest or weed control at 140 g/ha: 0 to 29%
[2]; [16]
  pest or weed control at 70 g/ha: 0 to 29%
  pest or weed control at 140 g/ha: 0 to 29%
[2]; [17]
  pest or weed control at 70 g/ha: 0 to 29%
  pest or weed control at 140 g/ha: 0 to 29%
